Laboratory results: patent publication US9987296B2, “Compositions including anthocyanin or anthocyanidin for the prevention or treatment of Articular cartilage-associated conditions” (priority 2008, dated 2018)
Where two headings read alike, the source gives them in different places.

What was measured:
[1] = system: rodent pancreatic beta-cells; details: in culture, with 4 and 10 mM glucose; cited from earlier work
[2] = system: osteoarthritic synovium explants; details: cited from earlier work
[3] = system: Human articular chondrocytes; experiment: Cell viability (calcein AM / ethidium homodimer staining); type: cell-based; details: concentrations above 100 uM up to 500 uM, 96 hours
Source text: Chondrocytes were isolated from non-arthritic regions of adult human articular cartilage (N=3 donors) and expanded in tissue culture flasks in DMEM supplemented with 10% calf serum.
At higher concentrations, the color of the anthocyanin interfered with the spectrophotometer reading; therefore, cell viability was additionally measured with calcein staining as follows: Live and dead cells were simultaneously viewed in situ with a confocal microscope (LSM 510; Zeiss, Wetzlar, Germany), using a fluorescent double stain. Calcein AM (1 uM; Invitrogen, Carlsbad, Calif.), a fluorescein derivative that is metabolized by nonspecific esterase present in viable cells, was used to stain live cells. The use of 8 uM ethidium homodimer (Invitrogen), a nucleic acid stain that is excluded by intact cell membranes, enabled visualization of the nuclei of dead cells. After 96-hour exposure to the appropriate concentration of anthocyanins, chondrocytes were cultured in DMEM supplemented with Calcein AM and ethidium homodimer for 45 minutes. Live and dead cells were counted using an automated image analysis script written in Matlab (MathWorks, Natick, Mass.) to measure percentage cell viability.

bovine chondrocytes = experiment: Matrix synthesis rate (35S) of bovine chondrocytes in alginate beads; type: cell-based; details: 100 uM with IL-1 5 ng/mL
Procedure: Chondrocytes were isolated from weight-bearing regions of young (18-30 months old) bovine femoral condyles. Primary cells were obtained from 3 different animals and suspended in beads of 2% alginate. The alginate beads were precultured in DMEM supplemented with 10% calf serum for 48 hours. Before the experiments, the chondrocytes were serum-starved overnight with 0.1% serum to reduce the effect of serum and to reduce anabolic activity to baseline.
For each treatment condition, 10 millicuries of ^35S was added to each well and incubated for the appropriate duration. At the appropriate harvest time point, each well was then washed extensively with PBS (5-6 times with 500 uL, of PBS), before trypsin and EDTA was added to dissolve alginate. After 20-30 minutes, the dissolved gels and released cells were transferred into 1.5 ml Eppendorf tubes with 150 uL, of calf serum (to promote pellet formation) and the cells were centrifuged at 2000 rpm for 5 minutes. The supernatant was removed via pipette without disturbing the cell pellet. The remaining cell and supernatant (approximately 300 ul) was then mixed with 500 uL of PBS and transferred to scintillation vials, to which 5 ml of scintillation fluid was dispensed. Each scintillation vial was capped, thoroughly vortexed and then placed in a gamma counter to measure gamma radiation emission for each sample. Each sample was measured for 5 minutes.

Oc1ccc(-c2[o+]c3cc(O)cc(O)c3cc2O)cc1.[Cl-] [Pelargonidin Chloride]
insulin secretion [1]: stimulate insulin secretion

N[C@H]1C(O)O[C@H](CO)[C@@H](O)[C@@H]1O (stereo partly drawn) [glucosamine]
increase of HA production ([2]; 0.5 mM): did not
increase of HA production ([2]; 5 mM): approximately 2 fold

OC[C@H]1OC(Oc2cc3c(O)cc(O)cc3[o+]c2-c2ccc(O)cc2)[C@H](O)[C@@H](O)[C@H]1O.[Cl-] (stereo partly drawn) [pelargonidin-3-galactoses, reference compound]
insulin secretion [1]: stimulate insulin secretion

Delphinidin-3-O-Glucoside
toxicity relative to the other compounds tested [3]: least toxic at 200 μM
matrix synthesis rates (anti-arthritic effect) (bovine chondrocytes; 12 hours, listed as Delphinidin-3-O-glucoside): reversed the effect of IL-1 suppression on matrix synthesis rates
matrix synthesis rates (anti-arthritic effect) (bovine chondrocytes; 12 hours, listed as delphinidin-3-0-glucoside): anti-arthritic effect
matrix synthesis rates (anti-arthritic effect) (bovine chondrocytes; 12 hours, listed as delphinidin-3-O-glucoside): anti-arthritic effect
matrix synthesis rates (anti-arthritic effect) (bovine chondrocytes; 24 hours, listed as Delphinidin-3-O-glucoside): reversed the effect of IL-1 suppression on matrix synthesis rates
matrix synthesis rates (anti-arthritic effect) (bovine chondrocytes; 24 hours, listed as delphinidin-3-0-glucoside): anti-arthritic effect
matrix synthesis rates (anti-arthritic effect) (bovine chondrocytes; 24 hours, listed as delphinidin-3-O-glucoside): anti-arthritic effect
insulin secretion [1]: stimulate insulin secretion
